Our source for the binding and DC50 values is PMC10827794 (2024).

Experiment [1] deals with WT_5.1R (RNA, G4) GCGAAAGGGGAAGGCGGGCGGUGGGGCAGGGGGCCUGAAGCGGCCUAGCUGUAGCUGACUGCA
Briefly: fluorescence enhancement. The settings on record: no added monovalent cation; 10 mM Tris-Cl pH 7.5, 0.01 mM EDTA, 25 °C; 2 μM RNA, 2 μM ThT; ~160-fold enhancement.

For experiment [2], the system named is WT_5.2 (Oligo 5.2) (DNA, G4) CCGCGCGGTGAGTCTAGGGCCTGGCACGACCCCTCTAGGGCGGCGTAATGTCCAGACCCA
Briefly: fluorescent intercalator displacement (G4-FID). The settings on record: TO displaced; ligand 0-2.5 μM.

The subject of experiment [3] is Template_8.1 with 8.1 primer (DNA, G4) CTGCCTGACAAGGGCTAGGGGGAGATCTGTGTTGGGTGACCAGGGCCATAAGTAAATTTCATCATACT/AGTATGATGAAATTTACTTATGG
Kind of experiment: polymerase stop (primer extension). Particulars: KCl, 1 mM MgCl2; 40 mM Tris-HCl pH 8.0, 40 °C; ligand 0-20 μM; truncated products.

In experiment [4] the test system is WT_5.3 (Oligo 5.3) (DNA, G4) CGGCCAGCCTGCCCGTGGGGGGGCCAGGGGAAGCCGCCCGTCTGGGACGTGGGGTCCCCA
Kind of experiment: fluorescent intercalator displacement (G4-FID). The settings on record: TO displaced; ligand 0-2.5 μM.

Experiment [5] deals with WT_14.2 (Oligo 14.2) (DNA, G4) ATAGAGAGTGATGGGGAGGGGGTGAGTGGAGGGTCAAGGAAGGCCCTCCCTGAGGTGGTGTTATTTGACGGGGGTCCACA
Kind of experiment: fluorescent intercalator displacement (G4-FID). The settings on record: TO displaced; ligand 0-2.5 μM.

Experiment [6] has as its system Template_5.2 with 5.2 primer (DNA, G4) CCGCGCGGTGAGTCTAGGGCCTGGCACGACCCCTCTAGGGCGGCGTAATGTCCAGACCCA/CGTGGGTCTGGACAT
Kind of experiment: polymerase stop (primer extension). Particulars: KCl, 1 mM MgCl2; 40 mM Tris-HCl pH 8.0, 40 °C; ligand 0-20 μM; truncated products.

Experiment [7] deals with WT_8.1 (Oligo 8.1) (DNA, G4) CTGCCTGACAAGGGCTAGGGGGAGATCTGTGTTGGGTGACCAGGGCCATA
Briefly: fluorescent intercalator displacement (G4-FID). The settings on record: TO displaced; ligand 0-2.5 μM.

Experiment [8] concerns WT_14.1 (Oligo 14.1) (DNA, G4) AAAGGGAAGTATGGCTGGTGTACCGGGAGCAAGGGAGAGGGAAGGAGGGGCCAAATTAATAGGCCCACGGT
Kind of experiment: fluorescent intercalator displacement (G4-FID). The settings on record: TO displaced; ligand 0-2.5 μM.

The test system of experiment [9] is WT_5.1 (Oligo 5.1) (DNA, G4) TAGAGGACAGCGGGGAAGGCGGGCGGTGGGGCAGGGGGCCTGAAGCGGCGGTACCGGTGCTGGCGGCGGCAGCTGAGGCC
Kind of experiment: fluorescent intercalator displacement (G4-FID). The settings on record: TO displaced; ligand 0-2.5 μM.

For experiment [10] the test system is unchanged. Briefly: fluorescence enhancement. The settings on record: 1 μM DNA, 2 μM TO.
Experiment [11] has as its system WT_40.1 (Oligo 40.1) (DNA, G4) GGGGGCGGGGGCGGGGGTGGGGGGAAGAAAAATTCCTAGCTGTAGCTGACTGCA
Kind of experiment: fluorescence enhancement. The settings on record: 10 mM Tris-Cl pH 7.5, 25 °C, 1 μM DNA, 2 μM TO.

Experiment [12] concerns WT_14.1 (Oligo 14.1) (DNA, G4) AAAGGGAAGTATGGCTGGTGTACCGGGAGCAAGGGAGAGGGAAGGAGGGGCCAAATTAATAGGCCCACGGT
Kind of experiment: fluorescence enhancement. The settings on record: 1 μM DNA, 2 μM TO.

The test system of experiment [13] is WT_14.2 (Oligo 14.2) (DNA, G4) ATAGAGAGTGATGGGGAGGGGGTGAGTGGAGGGTCAAGGAAGGCCCTCCCTGAGGTGGTGTTATTTGACGGGGGTCCACA
Kind of experiment: fluorescence enhancement. Particulars: 1 μM DNA, 2 μM TO.

For `Cc1ccc2c(c1)sc(-c1ccc(N(C)C)cc1)[n+]2C`, in [1], the binding result was “yes”.

With `C[n+]1ccc(-c2c3nc(c(-c4cc[n+](C)cc4)c4ccc([nH]4)c(-c4cc[n+](C)cc4)c4nc(c(-c5cc[n+](C)cc5)c5ccc2[nH]5)C=C4)C=C3)cc1`, the DC50 in experiment [2] was 1039 nM; in [4] it was 956.3 nM; in experiment [5], 629.6 nM; in experiment [7], 479.1 nM; in [8], 897.7 nM; in [9], 880 nM. The binding entry in experiment [3] and in experiment [6] was “yes” each time.

`CN1C(=Cc2cc[n+](C)c3ccccc23)Sc2ccccc21`: the binding result is on record as “yes” in experiment [10]; “yes” in experiment [11] (100 mM KCl, enhancement lower than without K+); “yes” in experiment [11] (no added monovalent cation, ~330-fold enhancement); “yes” in experiment [12]; “yes” in experiment [13].
